PMC9954146, “Anti-Leukaemic Activity of Rilpivirine Is Mediated by Aurora A Kinase Inhibition” (Cancers, 2023)

Columns and labels:
Assay in all cases: Kinase panel
Type in all cases: biochemical
Settings in all cases: read-out: % Residual Activity
ASK1(h) = molecular target: T1, ASK1(h) (Homo sapiens, UniProt Q99683)
T1 construct: purchased Eurofins (KinaseProfiler)
Summary of the method: (§1)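 In this kinome-wide profiling of rilpivirine, IC50 values were obtained in radiometric format at the Km concentration of ATP for each kinase, then expressed as Ki using Cheng–Prusoff.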

PIP5K1a(h) = PIP5K1a(h) (Homo sapiens, UniProt Q99755)
Summary of the method: as §1

CDKL3(h) = molecular target: T2, CDKL3(h) (Homo sapiens, UniProt Q8IVW4)
T2 construct: purchased Eurofins (KinaseProfiler)
Summary of the method: as §1

ChaK1(h) = molecular target: T3, ChaK1(h) (Homo sapiens, UniProt Q96QT4)
T3 construct: purchased Eurofins (KinaseProfiler)
Summary of the method: as §1

p70S6K(h) = molecular target: T4, p70S6K(h) (Homo sapiens, UniProt P23443)
T4 construct: purchased Eurofins (KinaseProfiler)
Summary of the method: as §1

PRK2(h) = molecular target: T5, PRK2(h) (Homo sapiens, UniProt Q16513)
T5 construct: purchased Eurofins (KinaseProfiler)
Summary of the method: as §1

NEK11(h) = molecular target: T6, NEK11(h) (Homo sapiens, UniProt Q8NG66)
T6 construct: purchased Eurofins (KinaseProfiler)
Summary of the method: as §1

MLCK(h) = molecular target: T7, MLCK(h) (Homo sapiens, UniProt Q15746)
T7 construct: purchased Eurofins (KinaseProfiler)
Summary of the method: as §1

PASK(h) = molecular target: T8, PASK(h) (Homo sapiens, UniProt Q96RG2)
T8 construct: purchased Eurofins (KinaseProfiler)
Summary of the method: as §1

GSK3α(h) = molecular target: T9, GSK3α(h) (Homo sapiens, UniProt P49840)
T9 construct: purchased Eurofins (KinaseProfiler)
Summary of the method: as §1

MAP4K3(h) = molecular target: T10, MAP4K3(h) (Homo sapiens, UniProt Q8IVH8)
T10 construct: purchased Eurofins (KinaseProfiler)
Summary of the method: as §1

PRK1(h) = molecular target: T11, PRK1(h) (Homo sapiens, UniProt Q16512)
T11 construct: purchased Eurofins (KinaseProfiler)
Summary of the method: as §1

CHK2(h) = molecular target: T12, CHK2(h) (Homo sapiens, UniProt O96017)
T12 construct: purchased Eurofins (KinaseProfiler)
Summary of the method: as §1

Syk(h) = molecular target: T13, Syk(h) (Homo sapiens, UniProt P43405)
T13 construct: purchased Eurofins (KinaseProfiler)
Summary of the method: as §1

CDK18/cyclinY(h) = molecular target: T14, CDK18/cyclinY(h) (Homo sapiens, UniProt Q07002)
T14 construct: purchased Eurofins (KinaseProfiler)
Summary of the method: as §1

PKCε(h) = molecular target: T15, PKCε(h) (Homo sapiens, UniProt Q02156)
T15 construct: purchased Eurofins (KinaseProfiler)
Summary of the method: as §1

Met(h) = molecular target: T16, Met(h) (Homo sapiens, UniProt P08581)
T16 construct: purchased Eurofins (KinaseProfiler)
Summary of the method: as §1

CDK5/p25(h) = molecular target: T17, CDK5/p25(h) (Homo sapiens, UniProt Q00535)
T17 construct: purchased Eurofins (KinaseProfiler)
Summary of the method: as §1

EphA4(h) = molecular target: T18, EphA4(h) (Homo sapiens, UniProt P54764)
T18 construct: purchased Eurofins (KinaseProfiler)
Summary of the method: as §1

Fms(Y969C)(h) = molecular target: T19, Fms(Y969C)(h) (Homo sapiens, UniProt P07333, Y969C)
T19 construct: purchased Eurofins (KinaseProfiler)
Summary of the method: as §1

MEK2(h) = molecular target: T20, MEK2(h) (Homo sapiens, UniProt P36507)
T20 construct: purchased Eurofins (KinaseProfiler)
Summary of the method: as §1

AMPKα2(h) = molecular target: T21, AMPKα2(h) (Homo sapiens, UniProt P54646)
T21 construct: purchased Eurofins (KinaseProfiler)
Summary of the method: as §1

TSSK2(h) = molecular target: T22, TSSK2(h) (Homo sapiens, UniProt Q96PF2)
T22 construct: purchased Eurofins (KinaseProfiler)
Summary of the method: as §1

PAK5(h) = molecular target: T23, PAK5(h) (Homo sapiens, UniProt Q9P286)
T23 construct: purchased Eurofins (KinaseProfiler)
Summary of the method: as §1

MAK(h) = molecular target: T24, MAK(h) (Homo sapiens, UniProt P20794)
T24 construct: purchased Eurofins (KinaseProfiler)
Summary of the method: as §1

Fes(h) = molecular target: T25, Fes(h) (Homo sapiens, UniProt P07332)
T25 construct: purchased Eurofins (KinaseProfiler)
Summary of the method: as §1

WNK2(h) = molecular target: T26, WNK2(h) (Homo sapiens, UniProt Q9Y3S1)
T26 construct: purchased Eurofins (KinaseProfiler)
Summary of the method: as §1

RIPK1(h) = molecular target: T27, RIPK1(h) (Homo sapiens, UniProt Q13546)
T27 construct: purchased Eurofins (KinaseProfiler)
Summary of the method: as §1

CDK3/cyclinE(h) = molecular target: T28, CDK3/cyclinE(h) (Homo sapiens, UniProt Q00526)
T28 construct: purchased Eurofins (KinaseProfiler)
Summary of the method: as §1

PAK4(h) = molecular target: T29, PAK4(h) (Homo sapiens, UniProt O96013)
T29 construct: purchased Eurofins (KinaseProfiler)
Summary of the method: as §1

MAPK2(h) = molecular target: T30, MAPK2(h) (Homo sapiens, UniProt P28482)
T30 construct: purchased Eurofins (KinaseProfiler)
Summary of the method: as §1

MST2(h) = molecular target: T31, MST2(h) (Homo sapiens, UniProt Q13188)
T31 construct: purchased Eurofins (KinaseProfiler)
Summary of the method: as §1

TLK1(h) = molecular target: T32, TLK1(h) (Homo sapiens, UniProt Q9UKI8)
T32 construct: purchased Eurofins (KinaseProfiler)
Summary of the method: as §1

Src(1-530)(h) = molecular target: T33, Src(1-530)(h) (Homo sapiens, UniProt P12931)
T33 construct: purchased Eurofins (KinaseProfiler)
Summary of the method: as §1

PKCη(h) = molecular target: T34, PKCη(h) (Homo sapiens, UniProt P24723)
T34 construct: purchased Eurofins (KinaseProfiler)
Summary of the method: as §1

SLK(h) = molecular target: T35, SLK(h) (Homo sapiens, UniProt Q9H2G2)
T35 construct: purchased Eurofins (KinaseProfiler)
Summary of the method: as §1

Abl (M351T)(h) = molecular target: T36, Abl (M351T)(h) (Homo sapiens, UniProt P00519, M351T)
T36 construct: purchased Eurofins (KinaseProfiler)
Summary of the method: as §1

PDGFRα(D842V)(h) = molecular target: T37, PDGFRα(D842V)(h) (Homo sapiens, UniProt P16234, D842V)
T37 construct: purchased Eurofins (KinaseProfiler)
Summary of the method: as §1

PrKX(h) = molecular target: T38, PrKX(h) (Homo sapiens, UniProt P51817)
T38 construct: purchased Eurofins (KinaseProfiler)
Summary of the method: as §1

T23 sequence (Q9P286 whole entry): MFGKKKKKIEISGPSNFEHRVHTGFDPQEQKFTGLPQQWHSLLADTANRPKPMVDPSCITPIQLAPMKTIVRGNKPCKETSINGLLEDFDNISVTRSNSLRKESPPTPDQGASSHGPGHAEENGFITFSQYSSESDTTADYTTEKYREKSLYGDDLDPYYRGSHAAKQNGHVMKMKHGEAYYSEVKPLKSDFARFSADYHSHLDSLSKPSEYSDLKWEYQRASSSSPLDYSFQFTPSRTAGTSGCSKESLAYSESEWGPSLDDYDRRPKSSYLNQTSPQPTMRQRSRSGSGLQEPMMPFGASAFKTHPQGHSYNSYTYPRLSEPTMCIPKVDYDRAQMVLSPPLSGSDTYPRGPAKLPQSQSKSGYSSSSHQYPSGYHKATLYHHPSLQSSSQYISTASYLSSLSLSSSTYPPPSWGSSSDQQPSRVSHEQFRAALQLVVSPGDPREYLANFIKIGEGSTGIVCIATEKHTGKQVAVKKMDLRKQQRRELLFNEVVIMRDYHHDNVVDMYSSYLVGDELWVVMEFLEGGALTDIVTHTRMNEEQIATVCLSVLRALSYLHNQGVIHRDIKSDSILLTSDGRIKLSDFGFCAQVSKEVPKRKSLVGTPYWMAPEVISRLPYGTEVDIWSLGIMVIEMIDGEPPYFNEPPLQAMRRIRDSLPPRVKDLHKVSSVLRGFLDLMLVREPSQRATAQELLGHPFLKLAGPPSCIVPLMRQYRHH
T19 sequence (P07333 20-972 Y969C): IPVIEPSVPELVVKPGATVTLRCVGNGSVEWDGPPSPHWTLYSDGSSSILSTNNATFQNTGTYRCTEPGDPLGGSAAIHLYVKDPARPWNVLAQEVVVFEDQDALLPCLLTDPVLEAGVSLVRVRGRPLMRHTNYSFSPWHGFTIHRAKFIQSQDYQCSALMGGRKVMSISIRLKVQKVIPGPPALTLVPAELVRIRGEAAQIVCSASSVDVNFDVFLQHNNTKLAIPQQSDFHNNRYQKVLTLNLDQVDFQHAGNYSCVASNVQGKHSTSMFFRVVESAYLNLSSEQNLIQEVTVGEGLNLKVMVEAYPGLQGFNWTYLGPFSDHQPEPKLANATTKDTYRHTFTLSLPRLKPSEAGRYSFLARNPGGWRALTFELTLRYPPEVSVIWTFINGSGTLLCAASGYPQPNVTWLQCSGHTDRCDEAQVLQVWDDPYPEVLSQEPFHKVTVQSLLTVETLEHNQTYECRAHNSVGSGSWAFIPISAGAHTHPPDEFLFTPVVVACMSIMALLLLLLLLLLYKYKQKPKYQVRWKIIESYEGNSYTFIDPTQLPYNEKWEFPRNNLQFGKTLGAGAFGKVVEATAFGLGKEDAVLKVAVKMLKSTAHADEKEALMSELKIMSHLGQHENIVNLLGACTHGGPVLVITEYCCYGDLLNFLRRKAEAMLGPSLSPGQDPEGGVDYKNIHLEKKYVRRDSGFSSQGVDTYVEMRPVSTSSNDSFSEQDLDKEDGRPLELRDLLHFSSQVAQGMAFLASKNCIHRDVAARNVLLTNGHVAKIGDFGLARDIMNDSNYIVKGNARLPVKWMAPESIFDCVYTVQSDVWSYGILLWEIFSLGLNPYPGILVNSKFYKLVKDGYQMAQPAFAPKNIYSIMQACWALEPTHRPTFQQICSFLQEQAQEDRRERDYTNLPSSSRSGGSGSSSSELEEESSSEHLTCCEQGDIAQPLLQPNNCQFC
T32 sequence (Q9UKI8 whole entry): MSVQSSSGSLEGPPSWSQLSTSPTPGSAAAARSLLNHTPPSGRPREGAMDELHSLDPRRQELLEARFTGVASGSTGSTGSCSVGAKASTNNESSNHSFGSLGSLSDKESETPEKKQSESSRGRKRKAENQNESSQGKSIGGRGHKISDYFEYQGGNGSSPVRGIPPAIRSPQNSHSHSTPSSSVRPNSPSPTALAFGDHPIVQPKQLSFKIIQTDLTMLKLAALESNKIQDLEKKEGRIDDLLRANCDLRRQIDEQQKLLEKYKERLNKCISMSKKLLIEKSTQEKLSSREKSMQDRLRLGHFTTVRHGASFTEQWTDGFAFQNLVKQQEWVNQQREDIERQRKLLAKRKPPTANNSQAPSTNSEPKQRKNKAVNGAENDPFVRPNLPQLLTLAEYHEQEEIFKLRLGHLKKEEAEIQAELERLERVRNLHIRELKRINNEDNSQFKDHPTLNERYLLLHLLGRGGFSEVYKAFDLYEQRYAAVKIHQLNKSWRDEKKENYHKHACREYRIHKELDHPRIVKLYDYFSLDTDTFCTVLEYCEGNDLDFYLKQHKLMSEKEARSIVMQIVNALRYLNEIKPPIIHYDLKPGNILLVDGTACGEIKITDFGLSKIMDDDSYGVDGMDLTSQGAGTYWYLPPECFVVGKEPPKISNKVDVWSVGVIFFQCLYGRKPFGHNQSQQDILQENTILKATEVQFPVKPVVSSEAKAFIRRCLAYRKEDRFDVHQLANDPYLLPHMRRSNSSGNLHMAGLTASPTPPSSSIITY
T28 sequence (Q00526 whole entry): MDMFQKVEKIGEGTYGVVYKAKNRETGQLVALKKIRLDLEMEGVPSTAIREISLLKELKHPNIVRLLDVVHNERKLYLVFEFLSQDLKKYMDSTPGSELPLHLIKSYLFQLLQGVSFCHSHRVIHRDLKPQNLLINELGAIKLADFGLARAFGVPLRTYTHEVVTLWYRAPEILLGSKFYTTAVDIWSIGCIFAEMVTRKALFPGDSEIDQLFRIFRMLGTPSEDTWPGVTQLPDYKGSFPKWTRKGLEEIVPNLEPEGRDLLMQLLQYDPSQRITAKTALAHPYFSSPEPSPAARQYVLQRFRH
T28 sequence (P24864 whole entry partner): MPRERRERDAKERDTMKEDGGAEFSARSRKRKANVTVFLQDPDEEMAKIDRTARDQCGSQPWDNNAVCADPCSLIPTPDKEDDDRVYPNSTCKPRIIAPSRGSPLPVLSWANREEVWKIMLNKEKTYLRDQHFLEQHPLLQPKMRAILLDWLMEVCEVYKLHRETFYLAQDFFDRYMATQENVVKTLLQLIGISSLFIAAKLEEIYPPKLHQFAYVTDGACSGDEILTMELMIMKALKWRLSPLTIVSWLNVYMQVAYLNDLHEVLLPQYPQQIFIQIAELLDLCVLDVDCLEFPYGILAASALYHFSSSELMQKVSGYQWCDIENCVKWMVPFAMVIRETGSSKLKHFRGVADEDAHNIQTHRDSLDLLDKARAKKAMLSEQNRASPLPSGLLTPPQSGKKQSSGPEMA
T27 sequence (Q13546 whole entry): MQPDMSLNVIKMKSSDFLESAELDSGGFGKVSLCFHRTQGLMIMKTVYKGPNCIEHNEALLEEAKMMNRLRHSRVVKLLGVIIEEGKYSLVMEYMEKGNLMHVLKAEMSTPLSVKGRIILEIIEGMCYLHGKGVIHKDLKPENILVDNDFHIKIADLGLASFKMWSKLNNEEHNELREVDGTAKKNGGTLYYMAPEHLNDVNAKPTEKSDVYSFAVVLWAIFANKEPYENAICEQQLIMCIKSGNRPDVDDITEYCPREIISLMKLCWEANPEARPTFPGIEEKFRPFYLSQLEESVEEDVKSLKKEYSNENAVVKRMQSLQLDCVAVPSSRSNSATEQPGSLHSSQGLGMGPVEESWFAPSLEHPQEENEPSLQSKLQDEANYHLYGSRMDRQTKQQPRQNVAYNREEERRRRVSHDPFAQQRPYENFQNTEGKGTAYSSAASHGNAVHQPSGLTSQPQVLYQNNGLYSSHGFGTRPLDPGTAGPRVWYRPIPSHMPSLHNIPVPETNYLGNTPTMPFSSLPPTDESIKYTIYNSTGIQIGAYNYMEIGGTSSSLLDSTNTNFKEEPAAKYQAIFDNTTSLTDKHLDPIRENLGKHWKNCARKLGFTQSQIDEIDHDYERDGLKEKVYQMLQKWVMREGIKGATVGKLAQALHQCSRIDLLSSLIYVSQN
T30 sequence (P28482 whole entry): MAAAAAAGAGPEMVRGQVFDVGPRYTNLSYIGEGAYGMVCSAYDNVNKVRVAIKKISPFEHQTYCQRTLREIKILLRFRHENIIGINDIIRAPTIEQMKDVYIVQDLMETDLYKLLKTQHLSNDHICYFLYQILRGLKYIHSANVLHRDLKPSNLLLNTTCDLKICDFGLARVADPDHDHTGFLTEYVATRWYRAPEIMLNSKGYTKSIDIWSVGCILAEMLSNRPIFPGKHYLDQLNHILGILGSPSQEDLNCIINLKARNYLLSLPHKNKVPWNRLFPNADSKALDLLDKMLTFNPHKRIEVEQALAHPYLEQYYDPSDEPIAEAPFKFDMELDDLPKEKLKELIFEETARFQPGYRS
T31 sequence (Q13188 whole entry): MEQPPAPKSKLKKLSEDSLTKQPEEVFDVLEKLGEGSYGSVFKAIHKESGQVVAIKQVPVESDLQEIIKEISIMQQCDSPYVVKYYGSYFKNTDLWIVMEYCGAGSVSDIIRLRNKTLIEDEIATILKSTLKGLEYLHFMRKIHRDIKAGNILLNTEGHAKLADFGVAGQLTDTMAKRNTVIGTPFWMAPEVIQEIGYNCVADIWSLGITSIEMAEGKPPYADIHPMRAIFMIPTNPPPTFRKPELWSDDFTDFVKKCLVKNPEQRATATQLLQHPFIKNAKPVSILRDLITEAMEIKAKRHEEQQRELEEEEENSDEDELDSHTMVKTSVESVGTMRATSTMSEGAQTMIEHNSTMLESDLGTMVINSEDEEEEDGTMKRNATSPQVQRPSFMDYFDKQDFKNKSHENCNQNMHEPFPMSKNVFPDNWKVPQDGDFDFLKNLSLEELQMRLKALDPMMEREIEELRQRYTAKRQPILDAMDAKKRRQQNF

Cc1cc(/C=C/C#N)cc(C)c1Nc1ccnc(Nc2ccc(C#N)cc2)n1 [rilpivirine, (E)-4-((4-((4-(2-cyanoethenyl)-2,6-dimethylphenyl)amino)pyrimidin-2-yl)amino)benzonitrile]
remaining activity at 1 µM (ASK1(h)): 92%
remaining activity at 1 µM (PIP5K1a(h)): 96%
remaining activity at 1 µM (CDKL3(h)): 58%
remaining activity at 1 µM (ChaK1(h)): 94%
remaining activity at 1 µM (p70S6K(h)): 108%
remaining activity at 1 µM (PRK2(h)): 74%
remaining activity at 1 µM (NEK11(h)): 92%
remaining activity at 1 µM (MLCK(h)): 95%
remaining activity at 1 µM (PASK(h)): 85%
remaining activity at 1 µM (GSK3α(h)): 80%
remaining activity at 1 µM (MAP4K3(h)): 91%
remaining activity at 1 µM (PRK1(h)): 64%
remaining activity at 1 µM (CHK2(h)): 93%
remaining activity at 1 µM (Syk(h)): 79%
remaining activity at 1 µM (CDK18/cyclinY(h)): 93%
remaining activity at 1 µM (PKCε(h)): 89%
remaining activity at 1 µM (Met(h)): 80%
remaining activity at 1 µM (CDK5/p25(h)): 97%
remaining activity at 1 µM (EphA4(h)): 93%
remaining activity at 1 µM (Fms(Y969C)(h)): 83%
remaining activity at 1 µM (MEK2(h)): 92%
remaining activity at 1 µM (AMPKα2(h)): 48%
remaining activity at 1 µM (TSSK2(h)): 91%
remaining activity at 1 µM (PAK5(h)): 91%
remaining activity at 1 µM (MAK(h)): 84%
remaining activity at 1 µM (Fes(h)): 85%
remaining activity at 1 µM (WNK2(h)): 80%
remaining activity at 1 µM (RIPK1(h)): 91%
remaining activity at 1 µM (CDK3/cyclinE(h)): 90%
remaining activity at 1 µM (PAK4(h)): 87%
remaining activity at 1 µM (MAPK2(h)): 101%
remaining activity at 1 µM (MST2(h)): 80%
remaining activity at 1 µM (TLK1(h)): 95%
remaining activity at 1 µM (Src(1-530)(h)): 31%
remaining activity at 1 µM (PKCη(h)): 103%
remaining activity at 1 µM (SLK(h)): 106%
remaining activity at 1 µM (Abl (M351T)(h)): 74%
remaining activity at 1 µM (PDGFRα(D842V)(h)): 79%
remaining activity at 1 µM (PrKX(h)): 97%
